In ChEMBL document CHEMBL1159382, “New antimalarial bis-dehydroaporphine alkaloids from Polyalthia debilis” (J Nat Prod, 2003) one finds IC50 data, which are given here for three compounds.

Molecules are shown by their SMILES. Values after ≈ are worked out from the molar mass of the structure shown.

The term IC50 denotes the point on the concentration scale where inhibition reaches its midpoint. The low end stands for inhibition by little substance, the high end for a need for much substance.

The experiment deals with Plasmodium falciparum. The experiment can be described thus: Antimalarial activity against multidrug-resistant Plasmodium falciparum K1 by [3H]hypoxanthine uptake. The format is functional, organism-based.

In turn, `COc1ccc2c(-c3c4c5c(cc6c(c5c5cc(OC)ccc35)OCO6)CCN4)c3c4c(cc5c(c4c2c1)OCO5)CCN3` [BIDEBILINE D] registered a 50% inhibitory concentration (IC50) of 4.1 µg/mL (≈ 7.01 µM).
With `C[C@@H]1CC[C@H]2[C@@H](C)C(=O)O[C@@H]3O[C@@]4(C)CC[C@@H]1[C@]32OO4` [ARTEMISININ], the IC50 turned out to be 0.001 µg/mL (≈ 0.00354 µM).
With `COc1cccc2c1c(-c1c3c4c(cc5c(c4c4cccc(OC)c14)OCO5)CCN3)c1c3c(cc4c(c32)OCO4)CCN1` [BIDEBILINE C], the IC50 turned out to be 5.4 µg/mL (≈ 9.24 µM).
